We go through one compound from ChEMBL document CHEMBL1144147, “New annonaceous acetogenins from Rollinia mucosa” (J Nat Prod, 1999).

The experiment in a line: Cytotoxicity against human HepG2(2.2.15) cells after 3 day. The class given is functional, cell-based. The settings on record: HepG2 2.2.15, 72 h.

A word on the IC50: it is the midpoint of a concentration-inhibition curve. Lower therefore signals higher potency.

Converted amounts (≈) assume the structure as drawn.

In turn, `COc1cccc2c1C(=O)c1c(O)c3c(c(O)c1C2=O)C[C@@](O)(C(=O)CO)C[C@@H]3O[C@H]1C[C@H](N)[C@H](O)[C@H](C)O1` [DOXORUBICIN] displayed an IC50 of 0.45 µg/mL (≈ 0.828 µM).
